We go through 2 molecules from patent US12091656B2, “Method for generating higher order genome editing libraries” (Johann Wolfgang Goethe-Universität Frankfurt am Main, priority 2016, dated 2024).

For data set [1], the system named is RPE1 cells. The data set is described as follows: Titration of CYSLTR2 antagonists against Doxorubicin, AlamarBlue cell viability assay. The data set is classed as cell-based, human. The following applies: 4 days. As to the method:
FIG. 6: Identifying Doxorubicin resistance with an optimized 3Cs-gRNA library. A) Experimental scheme illustrating the usage of hTERT-RPE1 cells, transduced with lentiviral particles (MOI=1) and selected with 1 μM Doxorubicin for three weeks. B) NGS- and bioinformatically-based identification of Doxorubicin-resistance inducing gRNAs and their location within annotated human genomic DNA. C) The CYSLTR2 gene is a reproducible protein-coding hit for which two chemical inhibitors are commercially available. Both inhibitors are titrated versus increasing concentrations of Doxorubicin and induce resistance to Doxorubicin.
Of all remaining gRNAs, 45.6% are located in coding regions, 22.2% are in introns and 10.5% are in non-coding (RNA coding) regions (FIG. 6b). However, 21.7% of gRNAs are located in genomic regions for which no biotype could be assigned, indicating a gap of knowledge for those regions (FIG. 6b). To validate some of the findings in a CRISPR/Cas independent manner, the protein-coding hit gene CYSLTR2 was chosen for which two chemical antagonists are commercially available. The inventors titrated increasing concentrations of Doxorubicin against increasing concentrations of the two compounds (BayCysLTR2 and Bay u9773) and incubated drug exposed RPE1 cells for 4 days after which they were subject to the cell viability assays AlamarBlue.

Data set [2] has as its system RPE1 cells. Nature of the data set: Doxorubicin effect on RPE1 cell viability (unperturbed conditions). The following applies: within 4 days. Type of data set: cell-based, human.

`CCCCC/C=C\C\C=C/C=C/C=C/[C@@H](Sc1ccc(C(=O)O)cc1)[C@@H](O)CCCC(=O)O` [Bay u9773]: in the data set on RPE1 cells [1] (FIG. 6c), the “strength of the reversion effect compared with the other CYSLTR2 antagonist” value was “reproducibly stronger effect”. Further, the “reversion of the cytotoxic effect of Doxorubicin” value in the data set with RPE1 cells [1] (increasing concentrations titrated against increasing Doxorubicin) was “able to revert the cytotoxic effect of Doxorubicin in a dose-dependent manner”.

In the case of `COc1cccc2c1C(=O)c1c(O)c3c(c(O)c1C2=O)C[C@@](O)(C(=O)CO)C[C@@H]3O[C@H]1C[C@H](N)[C@H](O)[C@H](C)O1` [Doxorubicin], the “reduction of RPE1 cell viability” value in the data set with RPE1 cells [2] is “robust and dose-dependent reduction of RPE1 cell viability”.
